The values below come from US9624167B2, “N-(4-hydroxy-4-methyl-cyclohexyl)-4-phenyl-benzenesulfonamides and N-(4-hydroxy-4-methyl-cyclohexyl)-4-(2-pyridyl)benzenesulfonamides and their therapeutic use” (PIMCO 2664 LIMITED, priority 2013, dated 2017).

Read-outs that look alike come from different tables or passages of the source.

Data set [1] in a line: Human Liver Microsomal Stability. Type of data set: in vitro ADME. The following applies: both sexes, pooled liver microsomes, 1 μM compound. Here is the method:
Metabolic stability was measured by determining the rate of disappearance of compound in the presence of human liver microsomal preparations, as quantified by liquid chromatography mass-spectrometry and […] mass-spectrometry (LC-MS/MS).
Metabolic stability of test compounds was measured by determination of the rate of disappearance of the compound when incubated in the presence of human liver microsomes. Liver microsomes are prepared from the endoplasmic reticulum of hepatocytes and are the primary source of the most important enzymes (cytochrome P450s) involved in drug metabolism. Study of drug stability in the presence of liver microsomes is accepted as a valuable model permitting rapid prediction of in vivo drug stability.
Human liver microsomes were obtained from a commercial source. Test compounds (1 μM) were incubated with pooled liver microsomes (male and female). Samples were incubated for a 60 minute period and removed at up to 6 time points and analysed by LC-MS/MS for the presence/amount of test compounds.
Microsomes (final protein concentration 0.25 or 0.5 mg/mL), 0.1 M phosphate buffer pH 7.4, and test compound (final concentration 1 μM; diluted from 10 mM stock solution to give a final DMSO concentration of 0.1%) were incubated at 37° C. prior to the addition of Nicotinamide adenine dinucleotide phosphate (NADPH, final concentration 1 mM) to initiate the reaction. The final incubation volume was 100 μL. A control incubation was included for each compound tested, where 0.1 M phosphate buffer pH 7.4 was added instead of NADPH. […]
Each compound was incubated for 0, 5, 15, 30, 45 or 60 minutes. The reactions were stopped by the addition of 100 μL ice-cold acetonitrile containing internal standard (0.001 mM glipizide) at the appropriate time points. The incubation plates were centrifuged at 4000 rpm for 15 minutes at 4° C. to precipitate the protein and 0.1 mL aliquots were analysed using LC-MS/MS, with the conditions shown in the following table.
From a plot of the natural logarithm of the peak area ratio (i.e., the ratio of compound peak area:internal standard peak area) against time, the gradient of the line was determined.
(In general: Microsomes from liver hold many membrane-bound enzymes, among them those of drug oxidation.)

Data set [2] relates to TK6 human lymphoblastoid cell line. The data set can be described thus: GreenScreen HC cytotoxicity (propidium iodide uptake). The class given is cell-based. Here is the method: (§1) GreenScreen HC is a mammalian cell-based assay for measuring the genotoxicity and cytotoxicity of chemical compounds and mixtures.
Cytotoxicity is measured in the GreenScreen assay alongside genotoxicity and the results of the cytotoxicity assessment are used to normalise the genotoxicity measurements as described above.
In the GreenScreen HC assay, cell viability is assessed using a propidium iodide uptake assay. Propidium iodide is an intercalating agent and a fluorescent molecule that can be used to stain cells. It is commonly used to quantitatively assess DNA content to evaluate cell viability or DNA content in cell cycle analysis and can be used to differentiate necrotic, apoptotic and normal cells (see, e.g., Dengler et al., 1995, Anticancer Drugs, Vol. 6, No. 4, pp. 522-532). Exposure to a cytotoxic compound increases the uptake of propidium iodide, which is monitored by optical absorbance and is proportional to […]. Cytotoxic compounds are those that show an observed decrease in relative population survival below a significance threshold set at 90% compared to vehicle-treated control, at one or more test concentrations.
(§2) A dilution series of each test compound is generated in parallel in a 96-well, black microplate with an optically clear base. A standard genotoxic compound (methyl methanesulfonate, MMS) is added as an intra-plate quality control check. The plates are analysed at 24 hour and 48 hour time points using a microplate reader, which provides measurements of light absorbance and fluorescence for cells and solutions in the microplates wells.
(§3) In addition to measurements of cell viability and genotoxicity described above, the GreenScreen assay incorporates an assessment of the effects of metabolic activation in the assay, the “GreenScreen HC S9 assay”. To accomplish this, the cells are incubated both in the presence of and absence of the post-mitochondrial supernatant liver extract (known as “S9”). S9 is routinely used in genetic toxicology to supplement the test cells with mammalian phase I metabolism. To assess metabolic activation, compounds are incubated with the TK6 strain in the presence of 1% v/v S9 fraction mix for 3 hours with a subsequent 45 hour recovery time. After the recovery period, the GFP fluorescence signal and cell viability (assessed by propidium iodide uptake) are measured using a flow cytometer. Cyclophosphamide, a commonly used control in genotoxicity studies utilising metabolic activation, is used as the positive control in the assay. In the GreenScreen HC S9 assay, genotoxicity is evaluated by induction in GFP expression quantified using the mean sample fluorescence and cytotoxicity using the propidium iodide uptake assay described above. The statistically defined threshold for a positive genotoxicity result is 1.3, i.e. 30% induction over and above the baseline for the vehicle-treated control and the result is reported as positive or negative. Cytotoxic compounds are those that show an observed decrease in relative population survival below a significance threshold set at 90% compared to vehicle-treated control, at one or more test concentrations.
Stably transfected reporter cell lines were derived from the p53-competent human lymphoblastoid TK6 cell line. The reporter cell line carries an episomally replicating plasmid bearing the upstream promoter region and other regulatory sequences of the human GADD45a gene linked to a human optimised Green Fluorescent Protein (GFP) gene. The control cell line carries an identical plasmid except for the removal of 4 base pairs at the start of the EGFP gene, such that GFP is not produced. Both plasmids also carry a gene conferring resistance to hygromycin B to the cell line, allowing continued selection for plasmid presence (200 μg/mL hygromycin B; Invitrogen Corporation, Carlsbad, Calif.). […]

Data set [3] relates to GADD45a-GFP reporter in TK6 human lymphoblastoid cell line. The data set can be described thus: GreenScreen HC genotoxicity (GADD45a-GFP reporter). Type of data set: cell-based.
Excerpt: as §1
The term genotoxic is used to describe substances that are capable of causing damage to genetic material (DNA) within a cell, which may ultimately have mutagenic, carcinogenic or teratogenic effects in humans.
The GreenScreen assay reports genotoxic stress as an increase in fluorescence from a genetically modified derivative of the p53-competent TK6 human lymphoblastoid cell line. In the modified cells, regulatory DNA sequences which promote the transcription of the GADD45a gene control the expression of Green Fluorescent Protein (GFP). GADD45a has a central role in genomic integrity, and genotoxic stress induces its transcription. Exposure to a genotoxic compound therefore increases the expression of GFP, which is observed as an increase in fluorescence and which is monitored by fluorescent detection using a plate reader or flow cytometer. In the GreenScreen HC assay fluorescence is normalised to the optical absorbance measurement to correct for variation in cell yield caused by loss of cell viability or cytotoxicity. The statistically defined threshold for a positive result in the GreenScreen HC assay is 1.5, i.e., 50% induction over and above the baseline for the vehicle-treated control.
as §2, §3
Stably transfected reporter cell lines were derived from the p53-competent human lymphoblastoid TK6 cell line. The reporter cell line carries an episomally replicating plasmid bearing the upstream promoter region and other regulatory sequences of the human GADD45a gene linked to a human optimised Green Fluorescent Protein (GFP) gene. The control cell line carries an identical plasmid except for the removal of 4 base pairs at the start of the EGFP gene, such that GFP is not produced. […]

[4] abbreviates: pH 7.4, human liver microsomes 0.25 mg/mL protein, 5 time points 0-60 min, one replicate, read-out: T1/2 (1).
Setting [5] is: lowest effective concentration for loss of cell viability.
The mark [6] stands for this setting: GreenScreen HC, positive or negative.
Where [7] appears, read: pH 7.4, human liver microsomes 0.5 mg/mL protein, 6 time points 0-60 min, two replicates, read-out: T1/2 (2).

`C[C@]1(O)CC[C@H](NS(=O)(=O)c2ccc(-c3ncc(F)cc3F)c(F)c2)CC1` [HMC-N-01-A, 4-(3,5-Difluoropyridin-2-yl)-3-fluoro-N-((1r,4r)-4-hydroxy-4-methylcyclohexyl)benzenesulfonamide]: the half-life at 1 μM in data set [1] (setting [4]) was determined as 2.92 h. The “Cytotoxicity, LEC, 48 h, −S9” value in data set [2] (absence of S9 fraction) was determined as 0.12 µM. The “Cytotoxicity, LEC, 48 h, +S9” value in data set [2] (presence of S9 fraction) worked out at 60 µM. In addition, the “Cytotoxicity, LEC, 24 h” value in data set [2] (setting [5]) stood at 0.94 µM. Besides, the Genotoxicity entry in data set [3] (setting [6]) is “Negative”.

Regarding `C[C@]1(O)CC[C@H](NS(=O)(=O)c2ccc(-c3ncc(Cl)cc3Cl)cc2)CC1` [HMC-N-03-A, 4-(3,5-Dichloropyridin-2-yl)-N-((1r,4r)-4-hydroxy-4-methylcyclohexyl)benzenesulfonamide], the half-life at 1 μM in data set [1] (setting [4]) stood at 4.3 h. In addition, the “Cytotoxicity, LEC, 48 h, −S9” value in data set [2] (absence of S9 fraction) was found to be 0.24 µM. Moreover, the “Cytotoxicity, LEC, 48 h, +S9” value in data set [2] (presence of S9 fraction) came out at 30 µM. Besides, the “Cytotoxicity, LEC, 24 h” value in data set [2] (setting [5]) was found to be 0.94 µM. Besides, the Genotoxicity entry in data set [3] (setting [6]) is given as “Negative”.

Consider `Cc1cc(S(=O)(=O)NC2CCC(C)(O)CC2)ccc1-c1ccc(F)cc1F` (single isomer, unassigned) [REF001, reference compound], for which the half-life at 1 μM in data set [1] (setting [4]) came to 0.717 h. Moreover, in data set [2] (absence of S9 fraction), the “Cytotoxicity, LEC, 48 h, −S9” value was 0.039 µM. In data set [2] (presence of S9 fraction), the “Cytotoxicity, LEC, 48 h, +S9” value was found to be 0.63 µM. Further, in data set [2] (setting [5]), the “Cytotoxicity, LEC, 24 h” value was 0.039 µM. The Genotoxicity entry in data set [3] (setting [6]) is “Positive”.

For the compound `C[C@]1(O)CC[C@@H](NS(=O)(=O)c2ccc(-c3ccc(F)cc3F)cc2)CC1` [ABD899, reference compound], the half-life at 1 μM worked out at 1.2 h in data set [1] (setting [4]) and 1.75 h in data set [1] (setting [7]). In addition, the “Cytotoxicity, LEC, 24 h” value in data set [2] (lab scale batch tested in the range 1.3 mM to 0.3 pM) was less than 0.001 µM; in data set [2] (mid scale batch tested in the range 164 μM to 0.003 μM) it was 0.64 µM. Moreover, the “Cytotoxicity, LEC, 48 h, +S9” value was determined as 0.32 µM in data set [2] (+S9, lab scale batch, 1.3 mM to 0.3 pM) and 81.9 µM in data set [2] (+S9, mid scale batch, 164 μM to 0.003 μM). In addition, the “Cytotoxicity, LEC, 48 h, −S9” value in data set [2] (−S9, lab scale batch, 1.3 mM to 0.3 pM) was less than 0.001 µM; in data set [2] (−S9, mid scale batch, 164 μM to 0.003 μM), 0.08 µM. In addition, the Genotoxicity result in data set [3] (lab scale batch, 1.3 mM to 0.3 pM) is listed as “Positive”; in data set [3] (mid scale batch, 164 μM to 0.003 μM), “Negative”.

As for `C[C@]1(O)CC[C@@H](NS(=O)(=O)c2ccc(-c3ncc(F)cc3F)cc2)CC1` [HMC-N-02-B, 4-(3,5-Difluoropyridin-2-yl)-N-((1s,4s)-4-hydroxy-4-methylcyclohexyl)benzenesulfonamide], the half-life at 1 μM in data set [1] (setting [7]) amounted to 2.8 h. The “Cytotoxicity, LEC, 48 h, −S9” value in data set [2] (absence of S9 fraction) was 0.01 µM. In addition, the “Cytotoxicity, LEC, 48 h, +S9” value in data set [2] (presence of S9 fraction) is 10.2 µM. Moreover, the “Cytotoxicity, LEC, 24 h” value in data set [2] (setting [5]) stood at 0.04 µM. In addition, in data set [3] (setting [6]), the Genotoxicity entry is recorded as “Negative”.

In the case of `C[C@]1(O)CC[C@H](NS(=O)(=O)c2ccc(-c3ccc(F)cc3C(F)(F)F)cc2)CC1` [HMC-C-02-A, 4′-Fluoro-N-((1r,4r)-4-hydroxy-4-methylcyclohexyl)-2′-(trifluoromethyl)biphenyl-4-sulfonamide], in data set [1] (setting [4]), the half-life at 1 μM turned out to be 0.917 h. Further, the “Cytotoxicity, LEC, 48 h, −S9” value in data set [2] (absence of S9 fraction) was 60 µM. In addition, the “Cytotoxicity, LEC, 48 h, +S9” value in data set [2] (presence of S9 fraction) is 120 µM. Also, the “Cytotoxicity, LEC, 24 h” value in data set [2] (setting [5]) was greater than 1000 µM. Further, the Genotoxicity result in data set [3] (setting [6]) was “Negative”.

On to `C[C@]1(O)CC[C@H](NS(=O)(=O)c2ccc(-c3ncc(Cl)cc3Cl)c(F)c2)CC1` [HMC-N-04-A, 4-(3,5-Dichloropyridin-2-yl)-3-fluoro-N-((1r,4r)-4-hydroxy-4-methylcyclohexyl)benzenesulfonamide], for which the half-life at 1 μM in data set [1] (setting [4]) came out at 2.6 h. Besides, in data set [2] (absence of S9 fraction), the “Cytotoxicity, LEC, 48 h, −S9” value worked out at 0.12 µM. The “Cytotoxicity, LEC, 48 h, +S9” value in data set [2] (presence of S9 fraction) is 30 µM. The “Cytotoxicity, LEC, 24 h” value in data set [2] (setting [5]) stood at 0.47 µM. Moreover, the Genotoxicity entry in data set [3] (setting [6]) was “Negative”.
